According to ChEMBL document CHEMBL3596152, “Synthesis of 1-O-acetylbritannilactone analogues from Inula britannica and in vitro evaluation of their anticancer potential” (Medchemcomm, 2014):

Assays:
Format in all cases: functional, cell-based
HeLa = assay: Cytotoxicity against human HeLa cells assessed as reduction in cell viability incubated for 72 hrs by SRB assay
HCT-116 = assay: Cytotoxicity against human HCT116 cells assessed as reduction in cell viability incubated for 72 hrs by SRB assay; conditions: HCT-116, 72 h
[1] = Cytotoxicity against human SGC7901 cells assessed as reduction in cell viability incubated for 72 hrs by SRB assay; conditions: SGC-7901, 72 h

| SMILES | IC50 (HeLa) | IC50 (HCT-116) | IC50 [1] |
| --- | --- | --- | --- |
| C=C1C(=O)O[C@@H]2CC(C)=C([C@@H](C)CCCOC(C)=O)[C@@H](OC(=O)c3ccc(OC)cc3)[C@H]12 | 8.85 µM |  |  |
| C=C1C(=O)O[C@@H]2CC(C)=C([C@@H](C)CCCOC(C)=O)[C@@H](OC(=O)CN3CCCC3)[C@H]12 | 12.7 µM | 20.5 µM | 18.4 µM |
| C=C1C(=O)O[C@@H]2CC(C)=C([C@@H](C)CCCOC(C)=O)[C@@H](OC(=O)c3cccc(F)c3)[C@H]12 | 11.8 µM | 14.5 µM | 12.9 µM |
| C=C1C(=O)O[C@@H]2CC(C)=C([C@@H](C)CCCOC(C)=O)[C@@H](OC(=O)COc3ccc(C(=O)OCCC)cc3)[C@H]12 | 22.9 µM | 37.5 µM | 27.7 µM |
| C=C1C(=O)O[C@@H]2CC(C)=C([C@@H](C)CCCOC(C)=O)[C@@H](OC(=O)COc3ccc4c(CC)noc4c3)[C@H]12 | 21.7 µM | 18.3 µM | 21.2 µM |
| C=C1C(=O)O[C@@H]2CC(C)=C([C@@H](C)CCCOC(C)=O)[C@@H](OC(=O)COc3ccc4c(C(F)(F)F)noc4c3)[C@H]12 | 19.2 µM | 21.5 µM | 19.7 µM |
| C=C1C(=O)O[C@@H]2CC(C)=C([C@@H](C)CCCOC(C)=O)[C@@H](OC(=O)c3ccc(F)cc3)[C@H]12 | 12 µM | 14.9 µM | 13.6 µM |
| C=C1C(=O)O[C@@H]2CC(C)=C([C@@H](C)CCCOC(C)=O)[C@@H](OC(=O)CN3CCCCC3)[C@H]12 | 10.3 µM | 13.9 µM | 11.5 µM |
| C=C1C(=O)O[C@@H]2CC(C)=C([C@@H](C)CCCOC(C)=O)[C@@H](OC(=O)c3ccc(C)cc3)[C@H]12 | 5.46 µM |  |  |
| C=C1C(=O)O[C@@H]2CC(C)=C([C@@H](C)CCCOC(C)=O)[C@@H](O)[C@H]12 | 32.6 µM | 36.1 µM | 47.8 µM |
| C=C1C(=O)O[C@@H]2CC(C)=C([C@@H](C)CCCOC(C)=O)[C@@H](OC(=O)c3ccc([N+](=O)[O-])cc3)[C@H]12 | 11.3 µM |  |  |
| C=C1C(=O)O[C@@H]2CC(C)=C([C@@H](C)CCCOC(C)=O)[C@@H](OC(=O)c3ccccc3F)[C@H]12 | 17 µM | 21.1 µM | 19.3 µM |
| O=c1[nH]cc(F)c(=O)[nH]1 [FLUOROURACIL] | 4.71 µM | 4.9 µM | 0.86 µM |
| C=C1C(=O)O[C@@H]2CC(C)=C([C@@H](C)CCCOC(C)=O)[C@@H](OC(=O)COc3ccc(C(C)=O)cc3)[C@H]12 | 43.9 µM | 40.1 µM | 49.6 µM |
